Results from the NIST ThermoML archive (doi:10.1021/je0342116).
± gives the expanded uncertainty stated by the source.

Test: activity coefficient (dimensionless); of the first substance listed, at infinite dilution; xn = mol fraction of the nth substance listed
Conditions: Liquid, Chromatography, x1 = 0

activity coefficient (249.97 K) | activity coefficient (270.03 K) | activity coefficient (290 K) | activity coefficient (310 K) | activity coefficient (330 K) | activity coefficient (249.96 K) | activity coefficient (270.04 K) | Structure (SMILES)
4.4 ± 0.2 | 4.4 ± 0.2 | 4.3 ± 0.2 | 4.1 ± 0.2 | 3.9 ± 0.2 | – | – | C=CCC [1-butene] + CC(C)O
– | – | 5.2 ± 0.2 | 5 ± 0.2 | 4.7 ± 0.2 | 5.4 ± 0.3 | 5.3 ± 0.2 | CC(C)C [2-methylpropane] + CC(C)O
4.4 ± 0.2 | 4.3 ± 0.2 | 4.2 ± 0.2 | 4 ± 0.2 | 3.8 ± 0.2 | – | – | C=C(C)C [2-methylpropene] + CC(C)O
– | – | 4.2 ± 0.2 | 4.1 ± 0.2 | 3.9 ± 0.2 | 4.3 ± 0.2 | 4.3 ± 0.2 | C/C=C/C [(E)-2-butene] + CC(C)O
5.2 ± 0.2 | 5.1 ± 0.2 | 5.1 ± 0.2 | 4.9 ± 0.2 | 4.6 ± 0.2 | – | – | CCCC [butane] + CC(C)O
– | – | 4.4 ± 0.2 | 4.3 ± 0.2 | 4.2 ± 0.2 | 4.5 ± 0.2 | 4.5 ± 0.2 | CCC [propane] + CC(C)O
– | – | 3.7 ± 0.2 | 3.6 ± 0.2 | 3.4 ± 0.2 | 3.8 ± 0.2 | 3.7 ± 0.2 | C=CC [propene] + CC(C)O

Structure (SMILES) | activity coefficient (249.97 K) | activity coefficient (270.03 K) | activity coefficient (290 K) | activity coefficient (310 K) | activity coefficient (330 K) | activity coefficient (249.96 K) | activity coefficient (270.04 K)
C=CC=C [1,3-butadiene] + CC(C)O | 3.9 ± 0.2 | 3.8 ± 0.2 | 3.7 ± 0.2 | 3.5 ± 0.2 | 3.3 ± 0.2 | – | –
